# Like-named read-outs stand apart in the source and are kept apart here. Non-standard residues stand in square brackets, D forms with d. Residues, ends and D or L forms follow the SMILES beside them. N(5-aminopentyl)Gly = NCCCCCNCC(=O)O; Gly(NCH2CH2Ph) = O=C(O)CNCCc1ccccc1; hPhe = N[C@@H](CCc1ccccc1)C(=O)O; hLys = NCCCCC[C@H](N)C(=O)O; Nphe = O=C(O)CNCc1ccccc1; Dab = NCC[C@H](N)C(=O)O
# Legend:
# [1] = tested on: HepG2 cell line ATCC HB-8065; experiment: in vitro; assay type: cell-based; conditions: 48 h
# Procedure: Side effects affecting cell viability were estimated on the HepG2 cell line ATCC HB-8065. In brief, HepG2 cells were seeded in flat-bottomed 96-well plates at a concentration of 5000 cells per well. At 80−90% confluency, the cells were incubated for 24 h in a humidified incubator (5% CO2, 37 °C). The medium was removed, and the cells were incubated for 48 h in a humidified incubator (5% CO2, 37 °C) with compounds in two-fold serial dilutions. An MTT assay was then performed as previously described. In brief, after incubation with the test compounds, the culture medium was removed and fresh medium with 0.2 mg/mL MTT was added in each well of the plate. After incubation (3 h, 37 °C, 5% CO2), the medium with MTT was removed, and 200 μL dimethyl sulfoxide were added at once to each sample. Absorbance of MTT was measured using spectrophotometer TECAN Infinite M1000 at 540 nm. The relative viability was calculated by using the formula: ODtreated cells × 100/ODcontrol cells. The IC50 values are calculated by using the program Graph Pad Prism® 5.0. For all compounds, the test range was 10–1280 μg/mL.
# [2] = Relative hydrophobicity by RP-HPLC (% MeCN at peak elution); assay type: physicochemical; conditions: RP-HPLC gradient 0 → 60% B during 10 min; % MeCN at peak elution calculated from retention time
# Procedure: The relative hydrophobicity of each peptidomimetic was measured by reverse-phase high-performance liquid chromatography (RP-HPLC). Typically, the RP-HPLC retention time (or percentage acetonitrile at peak elution) constitutes the preferred measure that allows for comparison of relative hydrophobicity, while log P values of polycationic peptides or peptidomimetics normally are considered unsuitable due to the extreme hydrophilic nature of such compounds [11, 45, 57, 58, 59, 60]. […] For both subgroups III (with cationic amino acid residues and the peptoid analogue of Phe, NPhe, i.e., 9–12) and IV (with cationic amino acid residues and the peptoid analogue of hPhe, NhPhe, i.e., 13–16) only minor differences in hydrophobicity were seen. These observations infer that, when the cationic residues are of a peptoid nature, the side-chain length of these has a […] influence on the hydrophobicity. […] Thus, introduction of additional six methylene groups results, as expected, in increased hydrophobicity.
# Starting materials and solvents were purchased from commercial suppliers (Iris Biotech, Markredwitz, Germany; Fluorochem, Hadfield, United Kingdom; and Merck, Darmstadt, Germany) and used without further purification. Water used for analytical and preparative high-performance liquid chromatography (HPLC) was filtered through a 0.22-μm Millipore membrane filter. Purity and retention time of each peptidomimetic were determined by analytical UHPLC by using a Phenomenex Luna C18(2) HST column (100 mm × 3 mm; particle size: 2.5 μm; pore size: 100 Å) on a Shimadzu Prominence and Shimadzu Nexera system using an aqueous acetonitrile (MeCN) gradient with 0.1% trifluoroacetic acid (TFA) added (eluent A: 5:95 MeCN–H2O + 0.1% TFA, eluent B: 95:5 MeCN–H2O + 0.1% TFA); a flow rate of 0.5 mL/min was used. For elution of peptidomimetics, a linear gradient of 0% to 60% B during 10 min was used with UV detection at λ = 220 nm. […] For each peptidomimetic, the percentage of MeCN at peak elution was calculated from the retention time by using the following formula:(1) %MeCN = 0.95 (0.6Rt/10 min.) + 0.05 (1−0.6Rt/10 min.).
# in vitro = assay type: cell-based; conditions: human, Hemolytic Activity (percentage hemolysis)
# Procedure: The lysis of human red blood cells was measured as previously described, with modifications. In brief, freshly drawn human red blood cells (hRBCs) were washed three times with PBS buffer and centrifuged two times for 5 min at 2500 rpm. A two-fold serial dilution of peptidomimetics in PBS buffer was added to each well in a sterile polypropylene V-bottom 96-well plate to the total volume of 75 μL. A 0.5% v/v hRBC suspension (75 μL in PBS buffer) was added to each well to reach a final volume of 150 μL in each well. The plate was incubated (37 °C) for 60 min, and then the cells were subsequently pelleted by centrifugation at 1000 rpm for 5 min. The supernatants (50 μL) were transferred to clear, flat-bottomed plastic 96-well plates. The concentration of hemoglobin was detected by measuring the OD at 405 nm. The OD of cells incubated with 0.1% SDS defined 100% hemolysis, while the OD of cells incubated with PBS buffer defined 0% hemolysis. The concentrations tested were 200, 400, and 800 μg/mL (only average values for the highest concentration are stated in Table 2).
# E. faecalis ATCC 29212 = assay type: cell-based
# Procedure: (§1) MIC values were evaluated by using the modified Hancock lab protocol in non-binding polystyrene microtitre plates, with bacterial suspensions of ∼2 × 10^5 CFU/mL in Mueller-Hinton broth (Difco, Sparks MD, USA), with Mg^2+ and Ca^2+ concentrations of 4 mg/L each. The compounds were dissolved in H2O and diluted in 0.01% acetic acid, 0.2% BSA (final concentration). Aliquots of 11 µL of 10 × test compounds were then transferred to the appropriate wells with bacterial suspensions. For preparation and transfer of the solutions of the compounds, low-binding sterile tubes and tips (Axygen, Union City CA, USA) were used. After 20 h incubation of covered plates at 35 °C (±2 °C) with circular shaking at 220 rpm, the MICs were read. The antibacterial activity of peptidomimetics was tested against E. coli ATCC 25922, K. pneumoniae ATCC 13883, P. aeruginosa ATCC 27853, P. aeruginosa PAO1, A. baumannii ATCC 19606, S. aureus ATCC 29213, and E. faecalis ATCC 29212.
# P. aeruginosa ATCC 27853 = assay type: cell-based
# Procedure: as §1
# E. coli ATCC 25922 = assay type: cell-based
# Procedure: as §1
# P. aeruginosa PAO1 = assay type: cell-based
# Procedure: as §1
# K. pneumoniae ATCC 13883 = assay type: cell-based
# Procedure: as §1
# S. aureus ATCC 29213 = assay type: cell-based
# Procedure: as §1
# A. baumannii ATCC 19606 = assay type: cell-based; conditions: A. baumannii ATCC 19606, Gram-negative; 20 h, Mueller-Hinton broth
# Procedure: as §1
Compound,IC50 for inhibiting growth of HepG2 cells [1],Hydrophobicity (% MeCN at elution) [2],"hemolysis at 60 min, 800 µg/mL (in vitro)","MIC (E. faecalis ATCC 29212; ATCC 29212, 20 h)","MIC (P. aeruginosa ATCC 27853; ATCC 27853, 20 h)","MIC (E. coli ATCC 25922; ATCC 25922, 20 h)","MIC (P. aeruginosa PAO1; PAO1, 20 h)","MIC (K. pneumoniae ATCC 13883; ATCC 13883, 20 h)","MIC (S. aureus ATCC 29213; ATCC 29213, 20 h)","MIC (E. faecalis ATCC 29212; E. faecalis ATCC 29212, Gram-positive, 20 h, Mueller-Hinton broth)","MIC (P. aeruginosa ATCC 27853; P. aeruginosa ATCC 27853, Gram-negative, 20 h, Mueller-Hinton broth)","MIC (E. coli ATCC 25922; E. coli ATCC 25922, Gram-negative, 20 h, Mueller-Hinton broth)","MIC (P. aeruginosa PAO1; P. aeruginosa PAO1, Gram-negative, 20 h, Mueller-Hinton broth)","MIC (K. pneumoniae ATCC 13883; K. pneumoniae ATCC 13883, Gram-negative, 20 h, Mueller-Hinton broth)","MIC (S. aureus ATCC 29213; S. aureus ATCC 29213, Gram-positive, 20 h, Mueller-Hinton broth)",MIC (A. baumannii ATCC 19606)
NCCCCCNCC(=O)N[C@@H](CCc1ccccc1)C(=O)N(CCCCCN)CC(=O)N[C@@H](CCc1ccccc1)C(=O)N(CCCCCN)CC(=O)N[C@@H](CCc1ccccc1)C(=O)N(CCCCCN)CC(=O)N[C@@H](CCc1ccccc1)C(=O)N(CCCCCN)CC(=O)N[C@@H](CCc1ccccc1)C(=O)N(CCCCCN)CC(=O)N[C@@H](CCc1ccccc1)C(N)=O [Peptidomimetic 8] (H-[N(5-aminopentyl)Gly][hPhe][N(5-aminopentyl)Gly][hPhe][N(5-aminopentyl)Gly][hPhe][N(5-aminopentyl)Gly][hPhe][N(5-aminopentyl)Gly][hPhe][N(5-aminopentyl)Gly][hPhe]-NH2),266 mg/L,40.9%,9%,>64 mg/L,64 mg/L,2 mg/L,64 mg/L,64 mg/L,>64 mg/L,,,,,,,
Colistin [reference compound],,,,,,,,,,>64 mg/L,0.125 to 0.25 mg/L,0.125 to 0.25 mg/L,0.5 mg/L,0.25 mg/L,>64 mg/L,0.5 mg/L
NCC[C@H](NC(=O)CN(Cc1ccccc1)C(=O)[C@H](CCN)NC(=O)CN(Cc1ccccc1)C(=O)[C@H](CCN)NC(=O)CN(Cc1ccccc1)C(=O)[C@H](CCN)NC(=O)CN(Cc1ccccc1)C(=O)[C@H](CCN)NC(=O)CN(Cc1ccccc1)C(=O)[C@@H](N)CCN)C(=O)N(CC(N)=O)Cc1ccccc1 [Peptidomimetic 9] (H-[Dab][Nphe][Dab][Nphe][Dab][Nphe][Dab][Nphe][Dab][Nphe][Dab][Nphe]-NH2),326 mg/L,,79%,>64 mg/L,1 mg/L,2 to 4 mg/L,2 mg/L,32 to 64 mg/L,>64 mg/L,,,,,,,
NCCCCC[C@H](NC(=O)CN(CCc1ccccc1)C(=O)[C@H](CCCCCN)NC(=O)CN(CCc1ccccc1)C(=O)[C@H](CCCCCN)NC(=O)CN(CCc1ccccc1)C(=O)[C@H](CCCCCN)NC(=O)CN(CCc1ccccc1)C(=O)[C@H](CCCCCN)NC(=O)CN(CCc1ccccc1)C(=O)[C@@H](N)CCCCCN)C(=O)N(CCc1ccccc1)CC(N)=O [Peptidomimetic 16] (H-[hLys][Gly(NCH2CH2Ph)][hLys][Gly(NCH2CH2Ph)][hLys][Gly(NCH2CH2Ph)][hLys][Gly(NCH2CH2Ph)][hLys][Gly(NCH2CH2Ph)][hLys][Gly(NCH2CH2Ph)]-NH2),410 mg/L,41.1%,9%,>64 mg/L,16 mg/L,4 mg/L,32 mg/L,>64 mg/L,>64 mg/L,,,,,,,

# Reference: PMC6943742, “Peptide/Peptoid Hybrid Oligomers: The Influence of Hydrophobicity and Relative Side-Chain Length on Antibacterial Activity and Cell Selectivity” (Molecules, 2019)
